Some test systems named below: KM12 colon; UACC-257 melanoma; UO-31 renal; MOLT-4 leukemia; SNB-19 CNS; MCF7 breast; T-47D breast; NCI-H460 lung; 786-0 renal; MDA-N; HCT-15 colon; OVCAR-5 ovarian.
Test in all cases: inhibition of tumour cell growth, NCI panel, 48 h

Molecules are shown by their SMILES.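 Interpolation was linear, between the two tested concentrations surrounding the appropriate level; five concentrations were tested over 48 hours in 96-well plates. TGI is the concentration that stops growth completely.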

For `Cc1cn(S(=O)(=O)c2ccccc2)c2c(OCc3ccccc3)cc(NS(C)(=O)=O)cc12`, the TGI is over 100 µM in the experiment on KM12 colon; over 78 µM in the experiment with UACC-257 melanoma; over 100 µM in the experiment on UO-31 renal; over 24.8 µM with MOLT-4 leukemia; over 100 µM with SNB-19 CNS; 27.3 µM in the experiment on MCF7 breast. Further, the TGI is 39.4 µM in the experiment on T-47D breast; over 100 µM with NCI-H460 lung; over 100 µM in the experiment with 786-0 renal; over 100 µM with MDA-N; over 100 µM in the experiment with HCT-15 colon; over 100 µM in the experiment with OVCAR-5 ovarian.
Regarding `Cc1sc2nc3n(c(=O)c2c1C)N=CN(c1ccc(F)cc1)C3`, the TGI with KM12 colon, in the experiment on UACC-257 melanoma, in the experiment on UO-31 renal, in the experiment on MOLT-4 leukemia, in the experiment with SNB-19 CNS and with MCF7 breast was over 100 µM throughout. Moreover, the TGI in the experiment with T-47D breast is over 100 µM; in the experiment on NCI-H460 lung it was over 100 µM; in the experiment with 786-0 renal, 38.3 µM; in the experiment on MDA-N, over 100 µM; in the experiment with HCT-15 colon, over 100 µM; with OVCAR-5 ovarian it was over 100 µM.
Take `CCOC(=O)/C=C(\C(=O)OCC)n1ccc(=O)[nH]c1=O`: the TGI was 35.2 µM in the experiment with KM12 colon; 12.3 µM in the experiment on UACC-257 melanoma; 31.1 µM with UO-31 renal; 12.4 µM with MOLT-4 leukemia; over 100 µM with SNB-19 CNS; 23.9 µM in the experiment on MCF7 breast. The TGI with T-47D breast is 33.1 µM; in the experiment on NCI-H460 lung it was 52.2 µM; in the experiment on 786-0 renal, 18.5 µM; with MDA-N, 51.3 µM; with HCT-15 colon, 21.5 µM; with OVCAR-5 ovarian, 34.8 µM.
Regarding `N#CC(C#N)=C1C(=O)NC(N)=C1C#N`, the TGI in the experiment with KM12 colon, in the experiment with UACC-257 melanoma, in the experiment with UO-31 renal, in the experiment with MOLT-4 leukemia, in the experiment on SNB-19 CNS and in the experiment with MCF7 breast was over 100 µM each time. Besides, the TGI in the experiment on T-47D breast, in the experiment on NCI-H460 lung, with 786-0 renal, in the experiment on MDA-N, with HCT-15 colon and in the experiment with OVCAR-5 ovarian was over 100 µM throughout.
For `O=c1[nH]c(=S)c2cc3c(=S)[nH]c(=O)n(CCO)c3nc2n1CCO`, the TGI in the experiment on KM12 colon, with UACC-257 melanoma, in the experiment with UO-31 renal, in the experiment with MOLT-4 leukemia, in the experiment with SNB-19 CNS and in the experiment with MCF7 breast was over 100 µM each time. Moreover, the TGI with T-47D breast, in the experiment with NCI-H460 lung, in the experiment with 786-0 renal, with MDA-N, with HCT-15 colon and in the experiment with OVCAR-5 ovarian was over 100 µM each time.
For `O=C1C(=Cc2ccc(Cl)c(Cl)c2)C([O-])=C([P+](c2ccccc2)(c2ccccc2)c2ccccc2)C([O-])=C1[P+](c1ccccc1)(c1ccccc1)c1ccccc1`, the TGI in the experiment with KM12 colon was 4.66 µM; in the experiment with UACC-257 melanoma, 5.8 µM; with UO-31 renal it was 8.89 µM; in the experiment with MOLT-4 leukemia it was 3.84 µM; with SNB-19 CNS, 6.35 µM; with MCF7 breast, 11.2 µM. For the same compound, the TGI amounted to 15.7 µM in the experiment on T-47D breast; 10.9 µM in the experiment with NCI-H460 lung; 4.18 µM in the experiment with 786-0 renal; 3.77 µM in the experiment on MDA-N; 13.8 µM in the experiment with HCT-15 colon; 12.6 µM with OVCAR-5 ovarian.
For the compound `CCOC(=O)c1c(-c2cccc3ccccc23)c(C#N)c(=S)n(C2OC(COC(C)=O)C(OC(C)=O)C(OC(C)=O)C2OC(C)=O)c1C` (configuration not stated), the TGI in the experiment with KM12 colon is over 100 µM; in the experiment on UACC-257 melanoma, over 100 µM; in the experiment on UO-31 renal, 3.49 µM; in the experiment with MOLT-4 leukemia it was over 100 µM; in the experiment on SNB-19 CNS, over 100 µM; with MCF7 breast, over 100 µM. The TGI in the experiment on T-47D breast, in the experiment on NCI-H460 lung, in the experiment on 786-0 renal, with MDA-N, with HCT-15 colon and with OVCAR-5 ovarian was over 100 µM each time.
Consider `O=[N+]([O-])c1cccc2nccc(NCCCO)c12`, for which the TGI is 24.6 µM in the experiment on KM12 colon; 23.6 µM in the experiment on UACC-257 melanoma; 35.3 µM in the experiment with UO-31 renal; 45.1 µM with MOLT-4 leukemia; 69.5 µM in the experiment with SNB-19 CNS; 27.9 µM with MCF7 breast. In addition, the TGI with T-47D breast came out at 79.7 µM; in the experiment with NCI-H460 lung, 24.4 µM; in the experiment with 786-0 renal, 37 µM; in the experiment on MDA-N, 22.2 µM; with HCT-15 colon it was 21.2 µM; with OVCAR-5 ovarian, 35.6 µM.
For the compound `CN(C)CCCNCc1cccc2ccccc12`, the TGI in the experiment on KM12 colon, in the experiment on UACC-257 melanoma, with UO-31 renal, in the experiment on MOLT-4 leukemia, in the experiment on SNB-19 CNS and in the experiment with MCF7 breast was over 100 µM each time. Moreover, the TGI in the experiment on T-47D breast, in the experiment on NCI-H460 lung, in the experiment on 786-0 renal, with MDA-N, with HCT-15 colon and in the experiment with OVCAR-5 ovarian was over 100 µM in each case.
On to `S=c1[nH]c2ccc(I)cc2c(=S)n1Cc1ccccc1`, for which the TGI in the experiment with KM12 colon was 50.7 µM; in the experiment with UACC-257 melanoma, 7.34 µM; with UO-31 renal, 24.8 µM; in the experiment on MOLT-4 leukemia it was 13.4 µM; in the experiment with SNB-19 CNS it was 48.6 µM; with MCF7 breast, over 100 µM. In addition, the TGI in the experiment with T-47D breast is 5.5 µM; in the experiment on NCI-H460 lung it was 16.3 µM; in the experiment with 786-0 renal it was 21.4 µM; in the experiment with MDA-N, 56.9 µM; in the experiment with HCT-15 colon, 23.3 µM; in the experiment on OVCAR-5 ovarian, 43.9 µM.
Turning to `C=C(c1ccccc1)c1ccccc1-c1cc(-c2ccccc2)cc(-c2ccccc2)n1`, the TGI with KM12 colon, in the experiment with UACC-257 melanoma, in the experiment on UO-31 renal, with MOLT-4 leukemia, with SNB-19 CNS and in the experiment on MCF7 breast was over 100 µM throughout. Moreover, the TGI is 61.3 µM in the experiment with T-47D breast; over 100 µM in the experiment on NCI-H460 lung; over 100 µM in the experiment with 786-0 renal; over 100 µM in the experiment on MDA-N; over 100 µM in the experiment on HCT-15 colon; over 100 µM in the experiment on OVCAR-5 ovarian.

Source of the values: PubChem BioAssay (NCI).
